Results: publication PMC6696198, “Thyroid Peroxidase Activity is Inhibited by Phenolic Compounds—Impact of Interaction” (Molecules, 2019)
Several values for one entry are separate records, joined by “and”; a condition that tells them apart may be missing. Identical values can stand only once. Entries after “also recorded” stand apart in the source; their conditions may differ. Like-named read-outs stand apart in the source and are kept apart here.

Assays:
[1] = ABTS radical scavenging (in vitro antioxidant capacity) assay; details: n = 9
Method: The ABTS radical scavenging activity was determined according to Re et al. with some modifications. 250 µL of ABTS solution was mixed with 10 µL of each pure polyphenols solutions (concentration 50 µg/mL) and measured at the wavelength 724 nm using a UV/Vis spectrophotometer (BioTek, Model Epoch2TC, Winooski, Vermont, VT, USA) after 15 min of incubation in room temperature. The inhibition percentage of ABTS discoloration was calculated using the following equation: AA=Ac−Ap/Ac×100% Where Ac—the absorbance of control, Ap—the absorbance of pure polyphenols solutions.

thyroid peroxidase (TPO) [2] = target: T1, thyroid peroxidase (TPO) (Sus scrofa, UniProt P09933); test: TPO inhibitory assay (guaiacol oxidation); type: biochemical, porcine; details: for Mode of Inhibition: Lineweaver-Burk plot, with respect to guaiacol; for Vmax: TPO in presence of inhibitor; for Vmax / Ki / IC50: n = 9; for IC50: porcine thyroid TPO, guaiacol assay, read-out: IC50 of TPO inhibition
T1 construct: The frozen thyroid gland was cut into slices and homogenized in a buffer containing 0.25 M sucrose; from tissue; host or cells: porcine thyroid gland (homogenate, centrifuged, salted-out to 60%)
T1 sequence (P09933 15-926): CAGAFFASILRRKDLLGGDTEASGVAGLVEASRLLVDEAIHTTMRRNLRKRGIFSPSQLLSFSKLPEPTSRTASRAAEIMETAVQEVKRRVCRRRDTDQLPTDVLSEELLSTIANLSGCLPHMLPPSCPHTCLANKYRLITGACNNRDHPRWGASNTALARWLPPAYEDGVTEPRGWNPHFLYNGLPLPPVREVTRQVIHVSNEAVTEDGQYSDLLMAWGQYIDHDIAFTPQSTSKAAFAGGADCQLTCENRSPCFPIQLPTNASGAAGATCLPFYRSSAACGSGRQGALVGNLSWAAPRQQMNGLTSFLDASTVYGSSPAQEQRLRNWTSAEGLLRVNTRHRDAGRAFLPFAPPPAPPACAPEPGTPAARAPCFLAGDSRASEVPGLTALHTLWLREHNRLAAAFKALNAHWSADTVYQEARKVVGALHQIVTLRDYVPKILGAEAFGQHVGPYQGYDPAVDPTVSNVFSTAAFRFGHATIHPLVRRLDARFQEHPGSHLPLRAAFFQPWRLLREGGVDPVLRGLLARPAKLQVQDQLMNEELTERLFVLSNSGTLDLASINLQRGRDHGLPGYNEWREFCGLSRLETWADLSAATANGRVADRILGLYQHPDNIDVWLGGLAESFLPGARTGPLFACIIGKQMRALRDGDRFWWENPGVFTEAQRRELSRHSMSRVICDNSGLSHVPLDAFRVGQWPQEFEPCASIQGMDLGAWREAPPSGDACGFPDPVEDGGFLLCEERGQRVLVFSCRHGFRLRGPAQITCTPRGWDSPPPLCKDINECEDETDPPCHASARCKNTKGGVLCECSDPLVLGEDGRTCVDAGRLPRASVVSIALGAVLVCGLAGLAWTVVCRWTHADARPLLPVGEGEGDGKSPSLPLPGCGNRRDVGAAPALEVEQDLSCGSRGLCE
Method: Porcine thyroid glands were obtained at a local slaughterhouse (Lublin, Poland) and stored in −20 °C until used.
The assay was prepared according to Jomaa with some modifications. The frozen thyroid gland was cut into slices and homogenized in a buffer containing 0.25 M sucrose, 2 mM Tris—HCl, 100 mM KCl, 40 mM NaCl, 10 mM MgCl2 (pH 7.4) with a Philips homogenizer. The thyroid gland was than centrifuged two times at 4000 RPM per 15 min in temperature +4 °C. The enzyme protein was then salted-out to 60%. The supernatant was used for further analysis and was stored in a −20 °C freezer.
The activity of the enzyme was assayed using a guaiacol assay. […] The reaction components were incubated in 37 °C before the assignment. […] The assay was conducted as follows: To a cuvette, 180 µL of buffer, 100 µL of guaiacol and 40 µL of TPO were mixed to the final volume of […]. The cuvette was then placed into the spectrophotometer and the reaction was started by the addition of 100 µL H2O2. Absorbance readings were recorded every minute for a total of 3 min. Verification of the TPO activity was accomplished by linearly correlating the TPO concentration with absorbance readings.
(§1) The assay was used according to Jomaa with some modification. The measurement was made using a plate spectrophotometer (BioTek, Model Epoch2TC, Winooski, Vermont, VT, USA) in 96–well plates at a wavelength of 470 nm. The assay was conducted as follows: 50 µl of buffer, 40 µl of pure substance solution, 50 µL of guaiacol, 20 µL of TPO enzyme and 50 µL H2O2. The total volume of the mixture was 210 µL. In the sample probe, extracts were replaced by the buffer. Absorbance readings were recorded every minute for a total of 3 min in 37^o. As a unit of TPO activity is defined as the change of absorbation per minute.
TPO inhibitory activity was calculated as follows: %inhibition=(1−ΔA/mintest/ΔAminblank)×100 Where: ΔA/min test is the linear absorbance change per minute of the test material and ΔA min blank is the linear change in absorbance per minute of the blank.
The IC50 value was determined by the interpolation of dose response curves. […] The mode of inhibition of the enzyme was performed using the Lineweaver–Burk plot.

thyroid peroxidase (TPO) [3] = target: T1, thyroid peroxidase (TPO); test: Effect of pure substance combinations on TPO activity (isobolographic analysis); type: biochemical, porcine; design: key to CI (Combination Index): CI <1 = synergy, =1 = addition, >1 = antagonism; details: TPO inhibition; for CI (Combination Index): n = 9
Method: as §1
Results (type and strength of interactions) can be shown on the isobolograms and described by the combination Index (CI). When CI is lower than one, indicates synergy; when CI is equal to one, indicates addition; when CI is higher than one, indicates antagonism. Isobolograms were performed according to Chou. […] Pure substances were mixed in various volume ratios: 1:4, 4:1, 3:2, 2:3, 1:1. All of the mixtures were made in combinations of two substances. The inhibitory assay was made using the same proportions as with single solutions.

[4] = design: method as in doi:10.1039/C6RA28237G; details: rats, cited from earlier work
[5] = design: method as in PMID 25978046; details: Melissa officinalis extract containing 500 mg rosmarinic acid, fasted state; cited from earlier work
TPO [6] = tested on: TPO; design: method as in PMID 25822105; details: according to literature data ref 22; read-out: IC50 of TPO inhibition (positive controls); cited from earlier work
TPO [7] = tested on: TPO; design: method as in PMID 8924586; details: read-out: IC50 in relation to TPO; cited from earlier work
[8] = six weeks supplementation with rutin, volunteers; cited from earlier work
[9] = after meal containing 150 g fried onions (equivalent to 64 mg quercetin); cited from earlier work
[10] = mixture with Chlorogenic Acid, listed as Rosmarinic acid
[11] = mixture with Quercetin, listed as Rosmarinic acid
[12] = mixture with Chlorogenic Acid, listed as Rutin

O=C(/C=C/c1ccc(O)c(O)c1)O[C@H](Cc1ccc(O)c(O)c1)C(=O)O [rosmarinic acid]
IC50 [1]: 151 ± 6 µM
Mode of Inhibition (thyroid peroxidase (TPO) [2]): competitive
Vmax (thyroid peroxidase (TPO) [2]): 175.44 ± 7.01 b ΔAU/min
Ki (thyroid peroxidase (TPO) [2]): 1 µM
IC50 (thyroid peroxidase (TPO) [2]): 4 ± 0.14 µM
Type of interaction (scale according to Chou) (thyroid peroxidase (TPO) [3]; mixture with Chlorogenic Acid): moderate antagonism
CI (Combination Index) (thyroid peroxidase (TPO) [3]; mixture with Chlorogenic Acid): 1.25
CI (Combination Index) (thyroid peroxidase (TPO) [3]; [10]): 1.25 ± 0.05
Type of interaction (scale according to Chou) (thyroid peroxidase (TPO) [3]; [10]): Moderate antagonism
Type of interaction (scale according to Chou) (thyroid peroxidase (TPO) [3]; mixture with Quercetin): moderate antagonism; also recorded: antagonistic interaction
CI (Combination Index) (thyroid peroxidase (TPO) [3]; mixture with Quercetin): 1.45
CI (Combination Index) (thyroid peroxidase (TPO) [3]; [11]): 1.45 ± 0.03
Type of interaction (scale according to Chou) (thyroid peroxidase (TPO) [3]; [11]): Moderate antagonism
Type of interaction (scale according to Chou) (thyroid peroxidase (TPO) [3]; mixture with Rutin): nearly additive
CI (Combination Index) (thyroid peroxidase (TPO) [3]; mixture with Rutin): 1.06 ± 0.05
Type of interaction (scale according to Chou) (thyroid peroxidase (TPO) [3]; mixture with Rutin, listed as Rosmarinic acid): Nearly additive
absolute bioavailability ([4]; oral 25 mg/kg): 1.28%
absolute bioavailability ([4]; oral 50 mg/kg): 0.91%
absolute bioavailability ([4]; oral […]): 1.69%
maximum serum concentration [5]: 162.20 nM
time of peak serum concentration of total rosmarinic acid [5]: 1 h

CCCc1cc(=O)[nH]c(=S)[nH]1 [Propylthiouracil]
IC50 (TPO [6]): 4 µM

C[C@@H]1O[C@@H](OC[C@H]2O[C@@H](Oc3c(-c4ccc(O)c(O)c4)oc4cc(O)cc(O)c4c3=O)[C@H](O)[C@@H](O)[C@@H]2O)[C@H](O)[C@H](O)[C@H]1O [rutin]
IC50 [1]: 292 ± 10 µM
Mode of Inhibition (thyroid peroxidase (TPO) [2]): competitive
Vmax (thyroid peroxidase (TPO) [2]): 149.25 ± 5.01 a ΔAU/min
Ki (thyroid peroxidase (TPO) [2]): 130 ± 3 µM
Type of interaction (scale according to Chou) (thyroid peroxidase (TPO) [3]; mixture with Chlorogenic Acid): slight synergism; also recorded: synergistically
CI (Combination Index) (thyroid peroxidase (TPO) [3]; mixture with Chlorogenic Acid): 0.88
CI (Combination Index) (thyroid peroxidase (TPO) [3]; [12]): 0.88 ± 0.02
Type of interaction (scale according to Chou) (thyroid peroxidase (TPO) [3]; [12]): Slight synergism
Type of interaction (scale according to Chou) (thyroid peroxidase (TPO) [3]; mixture with Quercetin): additive interaction; also recorded: nearly additive
CI (Combination Index) (thyroid peroxidase (TPO) [3]; mixture with Quercetin): 0.096 and 0.096 ± 0.05
Type of interaction (scale according to Chou) (thyroid peroxidase (TPO) [3]; mixture with Quercetin, listed as Rutin): additively; also recorded: Nearly additive
Type of interaction (scale according to Chou) (thyroid peroxidase (TPO) [3]; mixture with Rosmarinic Acid): additively; also recorded: additive interaction
Type of interaction (scale according to Chou) (thyroid peroxidase (TPO) [3]; mixture with Rosmarinic Acid, listed as Rutin): Nearly additive
IC50 (TPO [7]): 40.6 µM
increase in plasma isorhamnetin [8]: 10 fold
increase in plasma kaempferol [8]: 3 fold
increase in plasma quercetin [8]: 2.5 fold

O=C(/C=C/c1ccc(O)c(O)c1)O[C@@H]1C[C@](O)(C(=O)O)C[C@@H](O)[C@H]1O [chlorogenic acid]
Mode of Inhibition (thyroid peroxidase (TPO) [2]): noncompetitive
Vmax (thyroid peroxidase (TPO) [2]): 149.25 ± 5.97 a * ΔAU/min
Ki (thyroid peroxidase (TPO) [2]): 170 ± 5 µM
IC50 (thyroid peroxidase (TPO) [2]): 1440 ± 41 µM
Type of interaction (scale according to Chou) (thyroid peroxidase (TPO) [3]; mixture with Quercetin): antagonism; also recorded: antagonistic interaction
Type of interaction (scale according to Chou) (thyroid peroxidase (TPO) [3]; mixture with Quercetin, listed as Chlorogenic acid): Antagonism
Type of interaction (scale according to Chou) (thyroid peroxidase (TPO) [3]; mixture with Rosmarinic Acid): antagonistic interaction; also recorded: Moderate antagonism
Type of interaction (scale according to Chou) (thyroid peroxidase (TPO) [3]; mixture with Rutin): Slight synergism

Cn1cc[nH]c1=S [Methimazole]
IC50 (TPO [6]): 10.7 µM

Cc1c(C)c2c(c(C)c1O)CCC(C)(C(=O)O)O2 (centres unmarked) [Trolox, 6-hydroxy-2,5,7,8-tetramethylchroman-2-carboxylic acid, reference compound]
IC50 [1]: 407 ± 14 µM

O=c1c(O)c(-c2ccc(O)c(O)c2)oc2cc(O)cc(O)c12 [quercetin]
IC50 [1]: 450 µM and 447 µM
Mode of Inhibition (thyroid peroxidase (TPO) [2]): uncompetitive
Vmax (thyroid peroxidase (TPO) [2]): 149.25 ± 4.35 a ΔAU/min
Type of interaction (scale according to Chou) (thyroid peroxidase (TPO) [3]; mixture with Chlorogenic Acid): Antagonism
Type of interaction (scale according to Chou) (thyroid peroxidase (TPO) [3]; mixture with Rosmarinic Acid): Moderate antagonism
IC50 (TPO [7]): 2.4 µM
human plasma concentration of quercetin [9]: about 0.65 umol/l
